These results are taken from US20120142606A1, “TUMOR TARGETING PEPTIDES, THERAPEUTIC AND DIAGNOSTIC COMPOSITIONS COMPRESSING THE PEPTIDES” (priority 2009, published 2012).

Series [1] deals with MCF7 cells. Put plainly: Peptide binding to MCF7 breast cancer cells by flow cytometry. The settings on record: 0.1-100 μg/ml peptide, 4° C., 20 minutes. As to the method:
(§1) To assess peptide binding, MCF7 cells were incubated with increasing doses (0.1-100 μg/ml) of the BK-FITC peptide at 4° C. for 20 minutes. Cells were subsequently washed 4 times with PBS and analyzed by flow cytometry. […] Subsequently, we evaluated the specificity of the BK-peptide for breast cancer cells by incubating MCF7 cells in parallel with human peripheral blood mononuclear cells under the same conditions as mentioned above.
(§2) FIG. 2. […] MCF7 cells (left panel) and human peripheral blood mononuclear cells (PBMC) (right panel) were incubated with increasing doses of peptide for 20 min at 4° C. The cells were subsequently analyzed by flow cytometry for mean fluorescence intensity of FITC, depicted on the y-axis.
A general note: A flow cytometer gives signals particle by particle.

The subject of series [2] is MCF7 cells. The experiment in a line: Killing of MCF7 cells, propidium iodide staining and flow cytometry. The format is cell-based. The conditions noted are these: 50 μg/ml peptide, 24 h. How it is done: (§3) Next, we examined to what extent the peptide specifically kills MCF7 cells. White blood cells (WBCs) were used as a control for normal non-cancerous cells. WBCs were isolated from a healthy donor by ficoll hypaque gradient centrifugation. Red blood cells were removed using a red blood cell lysis buffer and the remaining WBCs were used for the experiment. MCF7 cells and WBCs were incubated with 50 μg/ml peptide or medium only for 24 h. Cells were collected, stained with propidium iodide (PI) and analyzed for apoptosis by flow cytometry (FIG. 3). The data was analyzed by gating on life PI negative cells which is depicted as % viable cells on the y-axis.

The test system of series [3] is human peripheral blood mononuclear cells. Put plainly: Peptide binding to peripheral blood mononuclear cells by flow cytometry (specificity). The conditions noted are these: 0.1-100 μg/ml peptide, 4° C., 20 minutes. How it is done: as §1, §2
A further series deals with White blood cells (WBCs). Put plainly: Killing of white blood cells (normal cell control), propidium iodide staining and flow cytometry. The settings on record: 50 μg/ml peptide, 24 h, WBCs from a healthy donor. It counts as cell-based. How it is done: as §3

For “KLAKLAKKLAKLAK-GG-LTVXPWY (SEQ ID NO:9) conjugated to fluoresceinisothiocyanate (FITC) [BK1-FITC, BK1-peptide conjugated to fluoresceinisothiocyanate]”, the “binding to MCF7 cells, mean fluorescence intensity (MFI) of FITC” value in the series with MCF7 cells [1] is “dose dependent increase in mean fluorescence intensity”.
Take KLAKLAKKLAKLAK-GG-LTVXPWY [BK1-peptide]: the “binding to MCF7 cells, mean fluorescence intensity (MFI) of FITC” value in the series with MCF7 cells [1] is on record as “binds to breast cancer cells”. Also, in the series on MCF7 cells [2], the “killing of MCF7 cells (% viable cells, PI negative)” value is listed as “kills MCF7”. The “binding to peripheral blood mononuclear cells, mean fluorescence intensity of FITC” value in series [3] is listed as “did not observe binding”. Besides, the “killing of white blood cells (% viable cells, PI negative)” value in the series with White blood cells (WBCs) is given as “but not white blood cells”.
